# US7700622B2, “p-38 kinase inhibitors” (Novartis AG, priority 2003, dated 2010)
# Molecular target: T1, p38α kinase (Homo sapiens, UniProt Q16539)
# T1 construct: purchased Upstate
# Experiment: p38α assay (coupled ADP/NADH oxidation kinase assay)
# Format: biochemical
# Set-up: scale not given here
# Conditions: 60 min preincubation with p38α, 0.15 mM ATP, 37° C.; read-out: Activity (p-38) IC50
# Method: cDNAs of human p38α and β were cloned by PCR. The α and β cDNAs were subcloned into DEST2 plasmid (Gateway, InVitrogen). His6-p38 fusion protein was expressed in E. coli and purified from bacterial lysates by affinity chromatography using Ni^+2-NTA-agarose. His6-p38 protein was activated by incubating with constitutively active MKK6. Active p38 was separated from MKK6 by affinity chromatography. Constitutively active MKK6 was generated in a manner similar to Raingeaud et al. [Mol. Cell.
# The p38α assay employed is based on measurement of ADP released in the reaction of interest through NADH oxidation obtained by coupling with pyruvate kinase and lactate dehydrogenase reactions. The assays were performed in 384-well UV-plates. The final volume was 25 uL prepared from the addition of 2.5 uL compound dissolved in 10% DMSO, 17.5 uL of assay buffer and 5 uL of ATP. […] Test compounds are preincubated with p38α for 60 min and the reaction started by addition of ATP to 0.15 mM final concentration. Reaction rates were measured at 340 nm using SpectraMax plate-reading spectrophotometer for 10 min at 37° C. Inhibition data were analyzed by non-linear least squares regression using SigmaPlot.
# T1 sequence (Q16539 whole entry): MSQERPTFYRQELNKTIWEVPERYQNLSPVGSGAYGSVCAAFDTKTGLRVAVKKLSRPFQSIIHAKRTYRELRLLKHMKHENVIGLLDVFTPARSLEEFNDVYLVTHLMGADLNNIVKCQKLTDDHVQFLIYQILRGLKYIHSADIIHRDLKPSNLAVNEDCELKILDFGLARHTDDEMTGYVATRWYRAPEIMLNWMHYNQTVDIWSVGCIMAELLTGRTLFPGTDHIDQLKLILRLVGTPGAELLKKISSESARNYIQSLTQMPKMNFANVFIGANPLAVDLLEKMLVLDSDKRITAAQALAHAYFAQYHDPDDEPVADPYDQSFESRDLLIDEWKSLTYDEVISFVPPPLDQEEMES
row,IC50,Structure (SMILES)
1,< 1 µM,"Cc1ccc(C(=O)NC2CC2)cc1-c1ccc(-c2nnco2)cn1 [Example 4, N-Cyclopropyl-4-methyl-3-(5-[1,3,4]oxadiazol-2-yl-pyridin-2-yl)-benzamide]"
2,< 1 µM,"Cc1ccc(C(=O)NC2CC2)cc1-c1ccc2c(=O)[nH]cnc2c1 [Example 10, N-Cyclopropyl-4-methyl-3-(4-oxo-3,4-dihydro-quinazolin-7-yl)-benzamide]"
3,< 1 µM,"Cc1ccc(C(=O)NC2CC2)cc1-c1ccc(C(=O)c2ccccc2)c(N)c1 [Example 14, 3′-Amino-4′-benzoyl-6-methyl-biphenyl-3-carboxylic acid cyclopropylamide]"
4,< 1 µM,"Cc1ccc(C(=O)NC2CC2)cc1-c1ccc(-c2nnco2)cc1 [Example 1, 6-Methyl4′-[1,3,4]oxadiazol-2-yl-biphenyl-3-carboxylic acid cyclopropylamide]"
5,< 1 µM,"Cc1ccc(C(=O)NC2CC2)cc1-c1ccc(-c2nnc[nH]2)cc1 [Example 3, 6-Methyl4′-(4H-[1,2,4]triazol-3-yl)-biphenyl-3-carboxylic acid cyclopropylamide]"
6,< 1 µM,"COc1ccc(CNC(=O)c2ccc(-c3cc(C(=O)NC4CC4)ccc3C)nc2)cc1 [Example 12, 6-(5-Cyclopropylcarbamoyl-2-methyl-phenyl)-N-(4-methoxy-benzyl)-nicotinamide]"
7,< 1 µM,"Cc1ccc(C(=O)NC2CC2)cc1-c1ccc2c(=O)n(Cc3ccccc3)cnc2c1 [Example 6, 3-(3-Benzyl-4-oxo-3,4-dihydro-quinazolin-7-yl)-N-cyclopropyl-4-methyl-benzamide]"
8,< 1 µM,"Cc1nnc(-c2ccc(-c3cc(C(=O)NC4CC4)ccc3C)nc2)o1 [Example 5, N-Cyclopropyl-4-methyl-3-[5-(5-methyl-[1,3,4]oxadiazol-2-yl)-pyridin-2-yl]-benzamide]"
9,< 1 µM,"COc1ccc(Cn2cnc3cc(-c4cc(C(=O)NC5CC5)ccc4C)ccc3c2=O)cc1 [Example 9, N-Cyclopropyl-3-[3-(4-methoxy-benzyl)-4-oxo-3,4-dihydro-quinazolin-7-yl]-4-methyl-benzamide]"
10,< 1 µM,"Cc1ccc(C(=O)NC2CC2)cc1-c1ccc2c(=O)n(Cc3c(Cl)cccc3Cl)cnc2c1 [Example 7, N-Cyclopropyl-3-[3-(2,6-dichloro-benzyl)-4-oxo-3,4-dihydro-quinazolin-7-yl]-4-methyl-benzamide]"
11,< 1 µM,"Cc1ccc(C(=O)NC2CC2)cc1-c1ccc(C(=O)c2ccccc2)cc1 [Example 11, 4′-Benzoyl-6-methyl-biphenyl-3-carboxylic acid cyclopropylamide]"
12,< 1 µM,"COc1ccc(CNC(=O)c2cnc(-c3cc(C(=O)NC4CC4)ccc3C)nc2N)cc1 [Example 13, N-(4-Methoxybenzyl)-2-[(5-cyclopropylaminocarbonyl)-2-methylphenyl]-4-aminopyrimidine-5-carboxyamide]"
13,< 1 µM,"Cc1ccc(C(=O)NC2CC2)cc1-c1ccc2c(-c3ccccc3)nc(=O)[nH]c2c1 [Example 15, N-Cyclopropyl-4-methyl-3-(2-oxo-4-phenyl-1,2-dihydro-quinazolin-7-yl)-benzamide]"
14,< 1 µM,"Cc1ccc(C(=O)NC2CC2)cc1-c1ccc2c(-c3ccccc3)ncnc2c1 [Example 16, N-Cyclopropyl-4-methyl-3-(4-phenyl-quinazolin-7-yl)-benzamide]"
15,< 1 µM,"Cc1ccc(C(=O)NC2CC2)cc1-c1ccc2c(=O)n(Cc3ccc(Cl)c(Cl)c3)cnc2c1 [Example 8, N-Cyclopropyl-3-[3-(3,4-dichloro-benzyl)-4-oxo-3,4-dihydro-quinazolin-7-yl]-4-methyl-benzamide]"
16,< 1 µM,"CC(=O)Nc1cc(-c2cc(C(=O)NC3CC3)ccc2C)ccc1C(=O)c1ccccc1 [Example 17, 3′-Acetylamino4′-benzoyl-6-methyl-biphenyl-3-carboxylic acid cyclopropylamide]"
